Measurements as given in paper PMC8153121, “N-Alkylation of Anthracycline Antibiotics by Natural Sesquiterpene Lactones as a Way to Obtain Antitumor Agents with Reduced Side Effects” (Biomedicines, 2021).
Like-named read-outs stand apart in the source and are kept apart here.

Assays:
[1] = tested on: RD (embryonic rhabdomyosarcoma); assay: MTT cell viability test, RD; type: cell-based, Human; details: 72 h, read-out: IC50, RD
Experimental: (§1) Human cell cultures of tumor origin (A549 (lung carcinoma), HCT116 (colon adenocarcinoma), MCF7 (breast cancer), RD (embryonic rhabdomyosarcoma)), and the line of non-transformed cells HEK293 (embryonic kidney) provided by the Laboratory of Tumor Cell Genetics at the N.N. Blokhin Russian Cancer Research Institute, as well as by the Institute of Cytology of the Russian Academy of Sciences, were grown in DMEM (Gibco, Scotland, UK) and MEM (Gibco, Scotland, UK) containing fetal calf serum (10% by volume) (ThermoFisher Scientific, Paisley, UK), L-glutamine (2 mM) (Gibco, Scotland, UK), and penicillin-streptomycin (1% by volume) (PanEco, Moscow, Russia).
(§2) Cellular viability was determined by the MTT test. […] After 24 h of incubation, various concentrations of the test compounds dissolved in DMSO (≤1%) were added to the cell cultures, the solvent was added to the control wells in an equal volume, and then the cells were cultured under the same conditions for 72 h. After the incubation time, MTT (3-(4,5-dimethylthiazol-2-yl)-2,5-diphenyltetrazolium bromide, 5 mg/mL) was added to each well, and the plates were further incubated for 2 h (until a characteristic color appeared). Then, the formazan granules were dissolved in DMSO.
(§3) Using a plate analyzer (Cytation3, BioTech Instruments Inc., USA), the optical density was determined at λ = 530 nm.

[2] = tested on: A549 (lung carcinoma); assay: MTT cell viability test, A549; type: cell-based, Human; details: read-out: IC50, A549
Experimental: as §1, §2, §3

[3] = tested on: HCT116 (colon adenocarcinoma); assay: MTT cell viability test, HCT116; type: cell-based, Human; details: read-out: IC50, HCT116
Experimental: as §1, §2, §3

[4] = biological target: T1, cytochrome-c-oxidase complex of the mitochondrial respiratory chain (IV) (Rattus norvegicus, UniProt P00406+P05503+P05505); assay: Respiratory chain complex IV, OCR of isolated rat heart mitochondria (Seahorse); type: biochemical; details: isolated rat heart mitochondria 10 μg/well, compounds at 30 μM
T1 construct: Rat heart mitochondria were isolated by differential centrifugation; from tissue; host or cells: rat heart mitochondria
Experimental: (§4) Rat heart mitochondria were isolated by differential centrifugation using ice-cold buffer containing KCl (120 mM) and HEPES (20 mM), pH = 7.4, and a trypsin inhibitor. The mitochondrial yield ranged from 5 to 10 mg/mL of protein in the heart sediment. Mitochondria were stored in plastic containers at 4 °C.
(§5) The effect of the compounds on the functioning of the electron transport chain complexes was carried out using an Agilent Seahorse XF96e Analyzer (Seahorse Bioscience, Billerica, MA, USA) according to their ability to change the rate of oxygen uptake by isolated rat heart mitochondria (10 μg/well). The following modulators were used: activators of complex I of the electron transport chain, NADH dehydrogenase,—glutamate/malate; rotenone (2 μM) (Sigma Aldrich, Saint Louis, USA)—a tissue respiration blocker that stops the transfer of electrons from the reduced form of NADH to cytochrome b, was used as complex I inhibitor; potassium succinate ([…]) (Dia-M, Moscow, Russia), which is a substrate of complex II of the electron transport chain, made it possible to assess mitochondrial respiration mediated by succinate dehydrogenase; complex III (ubiquinol-cytochrome c-oxidoreductase) inhibitor—a blocker of cellular respiration antimycin A (Sigma Aldrich, Saint Louis, USA), as well as ascorbate/TMPD (0.5 μM) (Sigma Aldrich, Saint Louis, USA), allowed us to evaluate the cytochrome-c-oxidase mediated respiration of organelles.

[5] = tested on: HEK293 (embryonic kidney); assay: MTT cell viability test, non-transformed HEK293; type: cell-based, Human; details: read-out: IC50, HEK293
Experimental: as §1, §2, §3

[6] = tested on: MCF7 (breast cancer); assay: MTT cell viability test, MCF7; type: cell-based, Human; details: read-out: IC50, MCF7
Experimental: as §1, §2, §3

[7] = tested on: rat heart mitochondria; assay: Mitochondrial swelling; type: biochemical; details: rat heart mitochondria 0.5 mg/mL, compounds at 100 μM, Ca2+ 25 μM
Experimental: as §4
Mitochondrial swelling was recorded by the light transmission of the rat heart mitochondrial suspension at λ = 540 nm using a Victor 3 plate analyzer (Perkin Elmer, Germany). The swelling rate was estimated as △A540/min and was calculated as the tangent of the angle of the steepest dependence curve part △A540 versus time.

[8] = tested on: HeLa cervical tumor cell line; assay: Glycolysis stress test (Seahorse, extracellular acidification rate); type: cell-based; details: HeLa cells, test substances 30 μM
Experimental: The ability of the studied compounds to modulate anaerobic glycolysis was investigated using the Agilent Seahorse XF96e Analyzer (Seahorse Bioscience, Billerica, MA, USA) according to the level of hydrogen proton production in the samples on the HeLa cervical tumor cell line by the glycolysis stress test.
HeLa cells in the exponential growth phase were plated into a 96-well cell culture microplate Seahorse (the density of the cell culture was 3 × 10^4/well). After 24 h, the rate of medium extracellular acidification by cells treated with the test compounds was recorded in real time during the sequential injection of modulators: glucose (10 mM) (Dia-M, Moscow, Russia), oligomycin (1 μM) (Sigma Aldrich, Saint Louis, USA), 2-fluoro-2-deoxy-D-glucose (25 mM) (Sigma Aldrich, Saint Louis, USA). This allowed us to estimate the glycolysis intensity in cells by three main parameters of glycolytic function: glycolysis by adding saturating amounts of glucose to the system, glycolytic capacity by the introduction of oligomycin, and glycolytic reserve by using the inhibitor of this glycolysis 2-fluoro-2-deoxy-D-glucose.

[9] = biological target: T2, complex II of the electron transport chain (Rattus norvegicus, UniProt P21913+Q641Z9+Q6PCT8+Q920L2); assay: Respiratory chain complex II, OCR of isolated rat heart mitochondria (Seahorse); type: biochemical; details: isolated rat heart mitochondria 10 μg/well, compounds at 30 μM
T2 construct: Rat heart mitochondria were isolated by differential centrifugation; from tissue; host or cells: rat heart mitochondria
Experimental: as §4, §5

[10] = tested on: lipid peroxidation (LPO) of rat brain homogenate; assay: Lipid peroxidation of rat brain homogenate (TBA test); type: biochemical; details: rat brain homogenate 2 mg/mL, Fe2+ 500 μM, compound 100 μM
Experimental: To obtain a brain homogenate, decapitation of rats anesthetized in advance with CO2 was performed using a guillotine. The brain was homogenized in a buffer containing KCl (120 mM) and HEPES (20 mM) (Gibco, Scotland, UK), pH = 7.4, at 4 °C and centrifuged at 1500 rpm to obtain a supernatant.
To study the effect of compounds on the process of lipid peroxidation (LPO) of rat brain homogenate, we used a modified version of the TBA test, which is based on the reaction of 2-thiobarbituric acid with the final LPO product—malonic dialdehyde (MDA). According to the experimental scheme, the well of the plate contained the studied compounds (100 μM), rat brain homogenate (2 mg/mL), as well as 500 μM ferrous iron ions (FeSO4 × […]). After 30 min of incubation at 37 °C, TBA reagent was added to all samples, incubated for 90 min at 90 °C, and centrifuged at 6000 rpm for 15 min. The optical density of the selected supernatant was measured on a Victor 3 plate analyzer (Perkin Elmer, Germany […]) at λ = 540 nm.

[11] = MTT, 72 h, non-transformed cells

T1 sequence (P00406 whole entry, other chains not shown): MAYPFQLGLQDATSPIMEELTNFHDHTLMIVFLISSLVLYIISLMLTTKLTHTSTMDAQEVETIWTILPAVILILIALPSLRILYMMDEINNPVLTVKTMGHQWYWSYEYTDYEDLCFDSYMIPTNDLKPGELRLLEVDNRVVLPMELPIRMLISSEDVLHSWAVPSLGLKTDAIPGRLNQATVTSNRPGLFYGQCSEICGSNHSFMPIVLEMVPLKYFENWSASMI
T1 sequence (P05505 whole entry, other chains not shown): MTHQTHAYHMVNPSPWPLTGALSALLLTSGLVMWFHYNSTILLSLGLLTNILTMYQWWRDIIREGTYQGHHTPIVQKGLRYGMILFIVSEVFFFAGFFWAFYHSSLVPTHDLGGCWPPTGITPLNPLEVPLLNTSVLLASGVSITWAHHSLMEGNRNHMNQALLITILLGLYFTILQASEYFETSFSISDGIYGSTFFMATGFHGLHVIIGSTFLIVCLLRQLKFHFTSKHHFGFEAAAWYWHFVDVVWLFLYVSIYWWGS
T2 sequence (Q920L2 35-656): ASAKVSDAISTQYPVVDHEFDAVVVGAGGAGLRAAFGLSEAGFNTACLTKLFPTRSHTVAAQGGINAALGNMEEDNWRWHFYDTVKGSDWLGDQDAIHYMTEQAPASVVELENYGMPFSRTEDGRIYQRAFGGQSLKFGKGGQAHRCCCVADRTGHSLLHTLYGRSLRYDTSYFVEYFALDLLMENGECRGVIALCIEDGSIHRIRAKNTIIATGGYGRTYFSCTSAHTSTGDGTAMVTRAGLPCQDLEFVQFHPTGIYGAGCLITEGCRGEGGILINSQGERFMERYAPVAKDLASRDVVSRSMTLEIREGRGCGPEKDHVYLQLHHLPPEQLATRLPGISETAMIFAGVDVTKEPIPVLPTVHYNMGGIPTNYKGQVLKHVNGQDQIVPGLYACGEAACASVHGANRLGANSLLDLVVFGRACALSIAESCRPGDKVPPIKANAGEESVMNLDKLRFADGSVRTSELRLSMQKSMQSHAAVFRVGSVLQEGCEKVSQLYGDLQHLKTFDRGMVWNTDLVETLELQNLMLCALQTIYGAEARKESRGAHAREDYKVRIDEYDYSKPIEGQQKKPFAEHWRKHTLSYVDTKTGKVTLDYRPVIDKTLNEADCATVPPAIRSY
T2 sequence (P21913 31-282): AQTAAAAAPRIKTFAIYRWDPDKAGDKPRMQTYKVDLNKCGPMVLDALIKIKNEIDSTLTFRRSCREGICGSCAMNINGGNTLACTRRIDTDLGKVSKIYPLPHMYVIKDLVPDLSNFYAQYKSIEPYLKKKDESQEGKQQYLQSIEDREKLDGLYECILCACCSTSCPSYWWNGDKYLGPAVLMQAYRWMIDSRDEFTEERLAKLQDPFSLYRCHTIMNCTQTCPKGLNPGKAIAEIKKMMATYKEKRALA
T2 sequence (Q641Z9 30-169 limits assumed): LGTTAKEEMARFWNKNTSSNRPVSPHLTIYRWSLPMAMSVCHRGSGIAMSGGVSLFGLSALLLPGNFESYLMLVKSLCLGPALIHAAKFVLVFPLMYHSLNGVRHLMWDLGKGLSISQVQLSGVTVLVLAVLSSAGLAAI
T2 sequence (Q6PCT8 57-159): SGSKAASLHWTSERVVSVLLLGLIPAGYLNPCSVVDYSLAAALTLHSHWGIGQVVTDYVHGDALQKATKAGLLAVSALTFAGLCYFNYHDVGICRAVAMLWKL

| IC50 ([2]; MTT, 72 h) [µM] | IC50 ([3]; MTT, 72 h) [µM] | IC50 ([6]; MTT, 72 h) [µM] | Structure (SMILES) | IC50 ([1]; MTT) [µM] | Work of Respiratory Chain Complexes, % Decrease in OCR of Control, IV [4] | IC50 [5, 11] [µM] | Mitochondrial Swelling, % of Ca2+-Induced Swelling [7] | Effect on glycolytic function (extracellular acidification rate) [8] | Work of Respiratory Chain Complexes, % Decrease in OCR of Control, II [9] | IC50 ([1]; Homo sapiens) [µM] | IC50 ([2]; Homo sapiens, A549, 72 h) [µM] | IC50 ([3]; Homo sapiens, HCT-116, 72 h) [µM] | IC50 ([5]; Homo sapiens, HEK293, 72 h) [µM] | IC50 ([6]; Homo sapiens, MCF7, 72 h) [µM] | melting point [°C] | % of MDA relative to control [10] [%] | other results |
| --- | --- | --- | --- | --- | --- | --- | --- | --- | --- | --- | --- | --- | --- | --- | --- | --- | --- |
| 1.42 ± 0.05 | 1.01 ± 0.01 | 1.24 ± 0.23 | COc1cccc2c1C(=O)c1c(O)c3c(c(O)c1C2=O)C[C@@](O)(C(C)=O)C[C@@H]3O[C@H]1C[C@H](NC[C@H]2C(=O)O[C@@H]3C[C@@]4(C)CCCC(C)=C4C[C@@H]32)[C@H](O)[C@H](C)O1 [Compound 3b] | 0.59 ± 0.05 | — (“—” indicates activity absence for compounds (≤10%) in a particular test) | 6.37 ± 0.24 | 26.45 ± 7.14% | most pronounced ability to reduce the acidification rate of the medium by cells |  |  |  |  |  |  |  |  |  |
| 4.52 ± 0.57 | 2.52 ± 0.02 | 3.03 ± 0.07 | COc1cccc2c1C(=O)c1c(O)c3c(c(O)c1C2=O)CC(O)(C(=O)CO)CC3OC1CC(NCC2C(=O)OC3CC4(C)CCCC(C)C45OC5C32)C(O)C(C)O1 (stereo not shown) [Compound 5a] | 2.47 ± 0.07 | 23.99 ± 4.41% | 4.5 ± 0.32 | — (“—” indicates activity absence for compounds (≤10%) in a particular test) | most pronounced ability to reduce the acidification rate of the medium by cells | — (“—” indicates activity absence for compounds (≤10%) in a particular test) |  |  |  |  |  |  |  |  |
|  |  |  | COc1cccc2c1C(=O)c1c(O)c3c(c(O)c1C2=O)C[C@@](O)(C(C)=O)C[C@@H]3O[C@H]1C[C@H](NC[C@H]2C(=O)O[C@@H]3CC4=CCC[C@H](C)[C@@]4(C)[C@@H](O)[C@@H]32)[C@H](O)[C@H](C)O1 [Compound 7b, (8S,10S)-8-Acetyl-6,8,11-trihydroxy-10-(((2R,4S,5S,6S)-5-hydroxy-4-((((3S,3aS,4S,4aR,5S,9aR)-4-hydroxy-4a,5-dimethyl-2-oxo-2,3,3a,4,4a,5,6,7,9,9a-decahydronaphtho[2,3-b]furan-3-yl)methyl)amino)-6-methyltetrahydro-2H-pyran-2-yl)oxy)-1-methoxy-7,8,9,10-tetrahydrotetracene-5,12-dione] |  | 46.08 ± 3.42% |  | — (“—” indicates activity absence for compounds (≤10%) in a particular test) |  | 21.04 ± 4.22% | 1.95 ± 0.01 | 2.01 ± 0.09 | 0.2 ± 0.01 | 6.42 ± 0.21 | 1.9 ± 0.07 | 155 to 162 |  |  |
|  |  |  | COc1cccc2c1C(=O)c1c(O)c3c(c(O)c1C2=O)C[C@@](O)(C(=O)CO)C[C@@H]3O[C@H]1C[C@H](NC[C@H]2C(=O)O[C@@H]3C[C@@]4(C)CCC=C(C)C4=C[C@@H]32)[C@H](O)[C@H](C)O1 [Compound 8a, (8S,10S)-10-(((2R,4S,5S,6S)-4-((((3S,3aR,8aR,9aR)-5,8a-Dimethyl-2-oxo-2,3,3a,7,8,8a,9,9a-octahydronaphtho[2,3-b]furan-3-yl)methyl)amino)-5-hydroxy-6-methyltetrahydro-2H-pyran-2-yl)oxy)-6,8,11-trihydroxy-8-(2-hydroxyacetyl)-1-methoxy-7,8,9,10-tetrahydrotetracene-5,12-dione] |  | 25.95 ± 4.43% |  | 47.84 ± 4.99% |  | 27.58 ± 4.30% | 1.03 ± 0.02 | 1.87 ± 0.07 | 0.43 ± 0.02 | 16.4 ± 1.07 | 2.34 ± 0.01 | 166 to 170 |  |  |
|  |  |  | COc1cccc2c1C(=O)c1c(O)c3c(c(O)c1C2=O)C[C@@](O)(C(=O)CO)C[C@@H]3O[C@H]1C[C@H](N)[C@H](O)[C@H](C)O1 [a, doxorubicin, reference compound] |  | 37.73 ± 0.34% |  | 116.20 ± 10.98% |  | 70.54 ± 0.64% |  |  |  |  |  |  | 236.68 ± 13.06 | IC50 ([1]; Homo sapiens, MTT): 0.29 ± 0.02 µM; IC50 ([2]; Homo sapiens, A549, 72 h, MTT, 72 h): 0.38 ± 0.02 µM; IC50 ([3]; Homo sapiens, HCT-116, 72 h, MTT, 72 h): 0.14 ± 0.01 µM; IC50 ([5]; Homo sapiens, HEK293, 72 h, MTT, 72 h, non-transformed cells): 6.78 ± 0.76 µM; IC50 ([6]; Homo sapiens, MCF7, 72 h, MTT, 72 h): 0.46 ± 0.03 µM; Work of Respiratory Chain Complexes, % Decrease in OCR of Control, II ([9]; listed as doxorubicin): more than 70% |
|  |  |  | COc1cccc2c1C(=O)c1c(O)c3c(c(O)c1C2=O)C[C@@](O)(C(C)=O)C[C@@H]3O[C@H]1C[C@H](N)[C@H](O)[C@H](C)O1 [b, daunorubicin, reference compound] |  | — (“—” indicates activity absence for compounds (≤10%) in a particular test) |  | 40.98 ± 3.86% |  | 72.12 ± 0.96% | 0.63 ± 0.03 | 0.33 ± 0.01 | 0.12 | 12.3 ± 1.17 | 0.84 ± 0.17 |  | 226.05 ± 6.60 | Work of Respiratory Chain Complexes, % Decrease in OCR of Control, II ([9]; listed as daunorubicin): more than 70% |
